According to patent US6057447A, “Quinoline sulfide derivatives” (Zenyaku Kogyo Kabushiki Kaisha, priority 1996, dated 2000):
Values after ≈ are worked out from the molar mass of the structure shown.

system: Helicobacter pylori standard strain ATCC 43526 (NCTC 11916); assay: Antibacterial Test 1: MIC against Helicobacter pylori, agar plate dilution method (anaerobic MIC method); type: cell-based; settings: 72 h, Hp ATCC 43526, agar plate dilution, 37° C., 3 days

SMILES | MIC [µg/mL]
O=C(CSc1ccnc2ccccc12)c1ccc(-c2ccccc2)cc1 [Compound 4, 4-[2-(p-Biphenyl)-2-oxoethylthio]quinoline] | 0.1 (≈ 0.281 µM)
CC(C)(C)OC(=O)N1CCN(c2ccc(C(=O)CSc3ccnc4ccccc34)cc2Br)CC1 [Compound 14, 4-[2-[3-Bromo-4-(4-tert-butoxycarbonyl-1-piperazinyl)-phenyl]-2-oxoethylthio]quinoline] | 0.0016 (≈ 0.00295 µM)
CC(C)(C)C(=O)Nc1ccc(C(=O)CSc2ccnc3ccccc23)cc1 [Compound 19, 4-[2-(4-Pivaloylaminophenyl)-2-oxoethylthio]quinoline] | 0.1 (≈ 0.264 µM)
O=C(CSc1ccnc2ccccc12)c1ccc(NCc2ccccc2)c(Br)c1 [Compound 20, 4-[2-(4-Benzylamino-3-bromophenyl)-2-oxoethylthio]-quinoline] | 0.025 (≈ 0.0539 µM)
CC(C)(C)OC(=O)Nc1ccc(CCSc2ccnc3ccccc23)cc1 [Compound 24, 4-[2-(4-tert-Butoxycarbonylaminophenyl)ethylthio]-quinoline] | 0.2 (≈ 0.526 µM)
c1ccc(COc2ccc(CCSc3ccnc4ccccc34)cc2)cc1 [Compound 25, 4-[2-(4-Benzyloxyphenyl)ethylthio]quinoline] | 0.1 (≈ 0.269 µM)
CC(C)(C)OC(=O)Nc1ccc(C(=O)CSc2ccnc3ccccc23)cc1 [Compound 30, 4-[2-(4-tert-Butoxycarbonylaminophenyl)-2-oxoethylthio]-quinoline] | 0.1 (≈ 0.253 µM)
COc1ccc2c(SCc3ccc(NCC(C)C)cc3)ccnc2c1 [Compound 35, 4-(4-Isobutylaminobenzylthio)-7-methoxyquinoline] | 0.39 (≈ 1.11 µM)
CCNc1ccc(CSc2ccnc3cc(SC)ccc23)cc1 [Compound 36, 4-(4-Ethylaminobenzylthio)-7-methylthioquinoline] | 0.1 (≈ 0.294 µM)
CSc1ccc2c(SCc3ccc(NCCC(C)CC(C)(C)C)cc3)ccnc2c1 (stereo not drawn) [Compound 37, 4-[4-(3,5,5-Trimethylhexylamino)benzylthio]-7-methylthioquinoline] | 0.2 (≈ 0.456 µM)
CSc1ccc2c(SCc3ccc(NCC(=O)c4ccc5ccccc5c4)cc3)ccnc2c1 [Compound 38, 4-[4-(2-β-Naphtyl-2-oxoethylamino)benzylthio]-7-methylthioquinoline] | 0.2 (≈ 0.416 µM)
CSc1ccc2c(SCc3ccc(N(C)C)c(C)c3)ccnc2c1 [Compound 40, 4-(3-Methyl-4-dimethylaminobenzylthio)-7-methylthioquinoline] | 0.2 (≈ 0.564 µM)
CSc1ccc2c(SCc3ccc(N(C)C)c(N(C)C)c3)ccnc2c1 [Compound 41, 4-[3,4-Bis(dimethylamino)benzylthio]-7-methylthioquinoline] | 0.2 (≈ 0.521 µM)
CSc1ccc2c(SCc3ccc(N4CCOCC4)cc3)ccnc2c1 [Compound 43, 4-(4-Morpholinobenzylthio)-7-methylthioquinoline] | 0.1 (≈ 0.261 µM)
CSc1ccc2c(SCc3ccc(N4CCCC4)cc3)ccnc2c1 [Compound 44, 4-[4-(1-Pyrrolidinyl)benzylthio]-7-methylthioquinoline] | 0.2 (≈ 0.546 µM)
CSc1ccc2c(SCc3ccc(N(CCOC(C)=O)CCOC(C)=O)cc3)ccnc2c1 [Compound 47, 4-[4-[Bis(2-acetoxyethyl)amino]benzylthio]-7-methylthioquinoline] | 0.2 (≈ 0.413 µM)
CSc1ccc2c(SCc3ccc(N(CCO)CCOC(C)=O)cc3)ccnc2c1 [Compound 48, 4-[4-[N-(2-Acetoxyethyl)-2-hydroxyethylamino]benzylthio]-7-methylthioquinoline] | 0.1 (≈ 0.226 µM)
CC(C)(C)OC(=O)N1CCN(CCc2ccc(C(=O)CSc3ccnc4ccccc34)cc2)CC1 [Compound 50, 4-[2-[4-[2-(4-tert-Butoxycarbonyl-1-piperazinyl)ethyl]-phenyl]-2-oxoethylthio]quinoline] | 0.05 (≈ 0.102 µM)
CC(C)(C)C(=O)N1CCN(c2ccc(C(=O)CSc3ccnc4ccccc34)cc2)CC1 [Compound 52, 4-[2-[4-(4-Pivaloyl-1-piperazinyl)phenyl]-2-oxoethylthio]quinoline] | 0.0008 (≈ 0.00179 µM)
COc1ccc(C=CC(=O)N2CCN(c3ccc(C(=O)CSc4ccnc5ccccc45)cc3)CC2)cc1 [Compound 53, 4-[2-[4-[4-(4-Methoxycinnamoyl)-1-piperazinyl]phenyl]-2-oxoethylthio]quinoline] | 0.025 (≈ 0.0477 µM)
CCCCCCOc1ccc(C(=O)CSc2ccnc3ccccc23)c(OC)c1 [Compound 55, 4-[2-[2-Methoxy-4-hexyloxyphenyl]-2-oxoethylthio]-quinoline] | 0.0062 (≈ 0.0151 µM)
COc1ccc(COc2ccc(C(=O)CSc3ccnc4ccccc34)cc2)cc1 [Compound 56, 4-[2-[4-(4-Methoxybenzyloxy)phenyl]-2-oxoethylthio]-quinoline] | 0.0125 (≈ 0.0301 µM)
OC(CSc1ccnc2ccccc12)c1ccc2ccccc2c1 (stereo not drawn) [Compound 61, 4-[2-(2-Naphtyl)-2-hydroxyethylthio]quinoline] | 0.2 (≈ 0.603 µM)

More lines, in order of falling MIC, values ahead:

MIC [µg/mL] | SMILES
0.39 (≈ 1.02 µM) | COc1cc(C(=O)CSc2ccnc3ccccc23)ccc1OCC1CO1 (stereo not drawn) [Compound 57, 4-[2-[3-Methoxy-4-(2,3-epoxypropoxy)phenyl]-2-oxoethylthio]quinoline]
0.2 (≈ 0.564 µM) | CSc1ccc2c(SC(C)c3ccc(N(C)C)cc3)ccnc2c1 (stereo not drawn) [Compound 33, 4-[1-(4-Dimethylaminophenyl)ethylthio]-7-methylthio-quinoline]
0.2 (≈ 0.526 µM) | CSc1ccc2c(SCc3ccc(N4CCCCC4)cc3)ccnc2c1 [Compound 45, 4-(4-Piperidinobenzylthio)-7-methylthioquinoline]
0.2 | Cl.O=C(CSc1ccnc2ccccc12)c1ccc(N2CCNCC2)cc1 [Compound 51, 4-[2-[4-(1-Piperazinyl)phenyl]-2-oxoethylthio]quinoline hydrochloride]
0.1 (≈ 0.249 µM) | COc1ccc(Oc2ccc(C(=O)CSc3ccnc4ccccc34)cc2)cc1 [Compound 15, 4-[2-[4-(4-Methoxyphenoxy)phenyl]-2-oxoethylthio]-quinoline]
0.1 (≈ 0.294 µM) | CNc1ccc(CSc2ccnc3cc(SC)ccc23)cc1C [Compound 39, 4-(3-Methyl-4-methylaminobenzylthio)-7-methylthioquinoline]
0.1 (≈ 0.253 µM) | CSc1ccc2c(SCc3ccc(N4CCN(C)CC4)cc3)ccnc2c1 [Compound 46, 4-[4-(4-Methyl-1-piperazinyl)benzylthio]-7-methylthioquinoline]
0.05 (≈ 0.147 µM) | COc1ccc(C(=O)CSc2ccnc3ccccc23)c(OC)c1 [Compound 6, 4-[2-(2,4-Dimethoxyphenyl)-2-oxoethylthio]quinoline]
0.05 (≈ 0.135 µM) | COc1cc(C(=O)CSc2ccnc3ccccc23)cc(OC)c1OC [Compound 17, 4-(2-(3,4,5-Trimethoxyphenyl)-2-oxoethylthio]quinoline]
0.0031 (≈ 0.00696 µM) | COc1ccc(COc2ccc(C(=O)CSc3ccnc4ccccc34)cc2OC)cc1 [Compound 58, 4-[2-[3-Methoxy-4-(4-methoxybenzyloxy)phenyl]-2-oxoethylthio]quinoline]
0.0016 (≈ 0.00334 µM) | CCN(CC)C(=S)N1CCN(c2ccc(C(=O)CSc3ccnc4ccccc34)cc2)CC1 [Compound 54, 4-[2-[4-(4-Diethylaminothiocarbonyl-1-piperazinyl)-phenyl]-2-oxoethylthio]quinoline]
0.0008 (≈ 0.00179 µM) | CC(C)(C)C(=O)N1CCC(c2ccc(C(=O)CSc3ccnc4ccccc34)cc2)CC1 [Compound 28, 4-[2-[4-(1-Pivaloyl-4-piperidinyl)phenyl]-2-oxoethylthio]-quinoline]
0.0008 (≈ 0.00191 µM) | CC(C)CN1CCN(c2ccc(C(=O)CSc3ccnc4ccccc34)cc2)CC1 [Compound 29, 4-[2-[4-(4-Isobutyl-1-piperazinyl)phenyl]-2-oxoethylthio]quinoline]
